How the values were obtained:
Assay in all cases: Deferred antagonism assay, producer S. salivarius K12
Format in all cases: cell-based
S. constellatus T29 = settings: for Zone of inhibition S. constellatus T29: K12
Procedure: (§1) 1-2 producer strain colonies were transferred from a stock plate into 900 μL of suspension solution using a fresh cotton swab. Following this, suspensions were vortexed, and a sample was inoculated onto solid culture media using a fresh cotton swab. The inoculation was a streak that runs diametrically across the agar plate in a 1.5 cm wide strip. The plate was then incubated. Following incubation all visible colonies were removed by swabbing them from the agar surface. The plates were then treated with chloroform by dispensing 2 ml of chloroform onto 4 cm×4 cm piece of cloth and sealing the inverted agar plate on top for 30 minutes. The plates were then air dried for 30 minutes following chloroforming. 1-2 indicator strain colonies were then transferred from a stock plate into complementary suspension solution. The suspensions were then vortexed, and a sample was inoculated onto the same agar surface. These samples were streaked in a perpendicular direction to the initial producer streak.
(§2) Each indicator streak was prepared with fresh a suspension containing cells from a corresponding stock plate containing the indicator strain of interest. Indicator strains suspension samples were transferred using a fresh cotton swab. Results were measured by qualitatively reviewing the subsequent (if any) sizes of the zones of inhibition (ZOI) of indicator strain colony growth. A positive result is when there is a distinctive reduction or complete inhibition of indicator colony growth on the culture medium.
(§3) CABCa agar plates containing various concentrations of saccharide were prepared according to the methods described in Method 1. Producer strains were transferred from stock agar plates into 900 μL THB using a fresh cotton swab. A plastic spread plater was cut to approximately 1.2 cm width and then dipped into ethanol and left to air dry to ensure sterility. A 100 μL sample of the producer strain suspension was then dispensed onto the agar surface in a straight line running diametrically across the agar surface in (approximately) 20 μL spots. The spots were spaced approximately 1.5 cm apart from each other. The plastic spreader was then used to evenly distribute the spots across the agar surface in a 1.5 cm wide strip. This step was taken to ensure an even producer streak was inoculated onto the agar surface and provided an approximate measure of the initial inoculum concentration. Separate plastic spreaders were used for samples containing different producer strains. The samples were left to soak into the agar surface until there was no visible liquid remaining on the agar surface (approximately 20 minutes). Following producer streak preparations, the deferred antagonism assay protocol was followed as per Method 2. Results were recorded by measuring the size of the zone of inhibition (ZOI) in mm.
(§4) A dose response assay was carried out according to method 3 above, except a 1.2 cm streak was used. For the individual saccharide testing the pH of the producer streak was adjusted after the growth of producer to change the acidic conditions.
(§5) A deferred antagonism assay was conducted using K12 or M18 raw ingredient suspended in Todd Hewitt broth (THB). This was spread as a 1.2 cm streak containing approximately 1-2×10^6 cfu down the middle of a CABCa control or CABCa galactose supplemented test plate. After 18 hrs growth at 37° C. with 5% CO2, bacterial growth was removed, and the pH of the agar in the initial streak was measured and adjusted to a pH of 6.5-7.5 using 0.5M sodium carbonate pH11 before sterilizing the agar surface using chloroform vapor. Bacterial test strains were suspended in i-THB before being swabbed across the plates perpendicular to the initial streak. Plates were incubated for a further 18 hrs incubation at 37° C. with 5% CO2 before measuring (mm) any zones of inhibition for each test strain, […]

[1] = system: S. saprophyticus ATCC 15305; settings: for Zone of inhibition S. saprophyticus ATCC 15305 / Inhibitory activity of S. salivarius K12 in presence of saccharides, S. saprophyticus ATCC 15305: K12
Procedure: as §1, §2, §3, §4, §5

S. pyogenes 71-698 = settings: for Zone of inhibition S. pyogenes 71-698: K12
Procedure: as §1, §2, §3, §4, §5

S. pneumoniae D39 = settings: for Zone of inhibition S. pneumoniae D39: K12
Procedure: as §1, §2, §3, §4, §5

S. mutans OMZ175 = settings: for Zone of inhibition S. mutans OMZ175 / Inhibitory activity of S. salivarius K12 in presence of saccharides, S. mutans OMZ175: K12
Procedure: as §1, §2, §3, §4, §5

S. aureus A222 = settings: for Zone of inhibition S. aureus A222 / Inhibitory activity of S. salivarius K12 in presence of saccharides, S. aureus A222: K12
Procedure: as §1, §2, §3, §4, §5

[2] = 2.5, 5 and 10% w/v raffinose added

## OC[C@H]1O[C@H](OC[C@H]2O[C@H](O[C@]3(CO)O[C@H](CO)[C@@H](O)[C@@H]3O)[C@H](O)[C@@H](O)[C@@H]2O)[C@H](O)[C@@H](O)[C@H]1O [Raffinose, D-(+) Raffinose pentahydrate]
S. constellatus T29; 0.5 to 10% w/v raffinose
  inhibition by K12 of S. constellatus T-29: increase in inhibition
S. constellatus T29; Raffinose 1.7% wt
  Zone of inhibition S. constellatus T29: 8 mm
S. constellatus T29; Raffinose 1.7% wt, pH adjusted
  Zone of inhibition S. constellatus T29: 4 mm
S. constellatus T29; Raffinose 2.5% wt
  Zone of inhibition S. constellatus T29: 22 mm
S. constellatus T29; Raffinose 2.5% wt, pH adjusted
  Zone of inhibition S. constellatus T29: 18 mm
S. constellatus T29; Raffinose 3.3% wt, pH adjusted
  Zone of inhibition S. constellatus T29: 16 mm
S. constellatus T29; Raffinose 5% wt, pH adjusted
  Zone of inhibition S. constellatus T29: 12 mm
S. constellatus T29; Raffinose 10% wt
  Zone of inhibition S. constellatus T29: 2 mm
S. constellatus T29; Raffinose 10% wt, pH adjusted
  Zone of inhibition S. constellatus T29: 11 mm
[1]; [2]
  sensitivity of S. saprophyticus ATCC 15305 to K12: sensitive
[1]; Raffinose 1.7% wt
  Zone of inhibition S. saprophyticus ATCC 15305: 7 mm
[1]; Raffinose 1.7% wt, pH adjusted
  Zone of inhibition S. saprophyticus ATCC 15305: 0 mm
[1]; Raffinose 2.5% wt
  Zone of inhibition S. saprophyticus ATCC 15305: 12 mm
[1]; Raffinose 2.5% wt, pH adjusted
  Zone of inhibition S. saprophyticus ATCC 15305: 8 mm
[1]; Raffinose 3.3% wt
  Zone of inhibition S. saprophyticus ATCC 15305: 12 mm
[1]; Raffinose 3.3% wt, pH adjusted
  Zone of inhibition S. saprophyticus ATCC 15305: 11 mm
[1]; Raffinose 5% wt
  Zone of inhibition S. saprophyticus ATCC 15305: 13 mm
[1]; Raffinose 5% wt, pH adjusted
  Zone of inhibition S. saprophyticus ATCC 15305: 12 mm
[1]; Raffinose 10% wt
  Zone of inhibition S. saprophyticus ATCC 15305: 12 mm
[1]; Raffinose 10% wt, pH adjusted
  Zone of inhibition S. saprophyticus ATCC 15305: 11 mm
[1]; saccharide 3.3% w/v
  Inhibitory activity of S. salivarius K12 in presence of saccharides, S. saprophyticus ATCC 15305: ✓
[1]; saccharide range 2.5%-10% w/v
  Inhibitory activity of S. salivarius K12 in presence of saccharides, S. saprophyticus ATCC 15305: ✓
S. pyogenes 71-698; 0.5 to 10% w/v raffinose
  inhibition by K12 of S. pyogenes: increase in inhibition
S. pyogenes 71-698; Raffinose 1.7% wt
  Zone of inhibition S. pyogenes 71-698: 10 mm
S. pyogenes 71-698; Raffinose 1.7% wt, pH adjusted
  Zone of inhibition S. pyogenes 71-698: 4 mm
S. pyogenes 71-698; Raffinose 2.5% wt
  Zone of inhibition S. pyogenes 71-698: 9 mm
S. pyogenes 71-698; Raffinose 2.5% wt, pH adjusted
  Zone of inhibition S. pyogenes 71-698: 3 mm
S. pyogenes 71-698; Raffinose 3.3% wt
  Zone of inhibition S. pyogenes 71-698: 11 mm
S. pyogenes 71-698; Raffinose 5% wt
  Zone of inhibition S. pyogenes 71-698: 7 mm
S. pyogenes 71-698; Raffinose 5% wt, pH adjusted
  Zone of inhibition S. pyogenes 71-698: 1 mm
S. pyogenes 71-698; Raffinose 10% wt
  Zone of inhibition S. pyogenes 71-698: 3 mm
S. pyogenes 71-698; Raffinose 10% wt, pH adjusted
  Zone of inhibition S. pyogenes 71-698: 3 mm
S. pneumoniae D39; 0.5 to 10% w/v raffinose
  inhibition by K12 of S. pneumoniae: increase in inhibition
S. pneumoniae D39; Raffinose 1.7% wt
  Zone of inhibition S. pneumoniae D39: 5 mm
S. pneumoniae D39; Raffinose 1.7% wt, pH adjusted
  Zone of inhibition S. pneumoniae D39: 10 mm
S. pneumoniae D39; Raffinose 2.5% wt
  Zone of inhibition S. pneumoniae D39: 8 mm
S. pneumoniae D39; Raffinose 2.5% wt, pH adjusted
  Zone of inhibition S. pneumoniae D39: 9 mm
S. pneumoniae D39; Raffinose 3.3% wt
  Zone of inhibition S. pneumoniae D39: 10 mm
S. pneumoniae D39; Raffinose 3.3% wt, pH adjusted
  Zone of inhibition S. pneumoniae D39: 7 mm
S. pneumoniae D39; Raffinose 5% wt
  Zone of inhibition S. pneumoniae D39: 8 mm
S. pneumoniae D39; Raffinose 5% wt, pH adjusted
  Zone of inhibition S. pneumoniae D39: 13 mm
S. pneumoniae D39; Raffinose 10% wt
  Zone of inhibition S. pneumoniae D39: 10 mm
S. pneumoniae D39; Raffinose 10% wt, pH adjusted
  Zone of inhibition S. pneumoniae D39: 10 mm
S. mutans OMZ175; [2]
  sensitivity of S. mutans OMZ175 to K12: sensitive
S. mutans OMZ175; Raffinose 1.7% wt
  Zone of inhibition S. mutans OMZ175: 11 mm
S. mutans OMZ175; Raffinose 1.7% wt, pH adjusted
  Zone of inhibition S. mutans OMZ175: 7 mm
S. mutans OMZ175; Raffinose 2.5% wt
  Zone of inhibition S. mutans OMZ175: 16 mm
S. mutans OMZ175; Raffinose 2.5% wt, pH adjusted
  Zone of inhibition S. mutans OMZ175: 13 mm
S. mutans OMZ175; Raffinose 3.3% wt
  Zone of inhibition S. mutans OMZ175: 16 mm
S. mutans OMZ175; Raffinose 3.3% wt, pH adjusted
  Zone of inhibition S. mutans OMZ175: 14 mm
S. mutans OMZ175; Raffinose 5% wt
  Zone of inhibition S. mutans OMZ175: 16 mm
S. mutans OMZ175; Raffinose 5% wt, pH adjusted
  Zone of inhibition S. mutans OMZ175: 15 mm
S. mutans OMZ175; Raffinose 10% wt
  Zone of inhibition S. mutans OMZ175: 15 mm
S. mutans OMZ175; Raffinose 10% wt, pH adjusted
  Zone of inhibition S. mutans OMZ175: 10 mm
S. mutans OMZ175; saccharide 3.3% w/v
  Inhibitory activity of S. salivarius K12 in presence of saccharides, S. mutans OMZ175: ✓
S. mutans OMZ175; saccharide range 2.5%-10% w/v
  Inhibitory activity of S. salivarius K12 in presence of saccharides, S. mutans OMZ175: ✓
S. aureus A222; 1.25, 2.5, 5 and 10% w/v raffinose added
  sensitivity of S. aureus A222 to K12: sensitive
S. aureus A222; Raffinose 1.7% wt
  Zone of inhibition S. aureus A222: 12 mm
S. aureus A222; Raffinose 1.7% wt, pH adjusted
  Zone of inhibition S. aureus A222: 8 mm
S. aureus A222; Raffinose 2.5% wt
  Zone of inhibition S. aureus A222: 15 mm
S. aureus A222; Raffinose 2.5% wt, pH adjusted
  Zone of inhibition S. aureus A222: 15 mm
S. aureus A222; Raffinose 3.3% wt
  Zone of inhibition S. aureus A222: 16 mm
S. aureus A222; Raffinose 3.3% wt, pH adjusted
  Zone of inhibition S. aureus A222: 13 mm
S. aureus A222; Raffinose 5% wt
  Zone of inhibition S. aureus A222: 14 mm
S. aureus A222; Raffinose 5% wt, pH adjusted
  Zone of inhibition S. aureus A222: 14 mm
S. aureus A222; Raffinose 10% wt
  Zone of inhibition S. aureus A222: 13 mm
S. aureus A222; Raffinose 10% wt, pH adjusted
  Zone of inhibition S. aureus A222: 13 mm
S. aureus A222; saccharide 3.3% w/v
  Inhibitory activity of S. salivarius K12 in presence of saccharides, S. aureus A222: ✓
S. aureus A222; saccharide range 2.5%-10% w/v
  Inhibitory activity of S. salivarius K12 in presence of saccharides, S. aureus A222: ✓
